BindingDB's records for doi:10.1021/jm00067a022 (Syntex Discovery Research, 1993)

Assay: Inhibition of lanosterol 14-alpha-demethylase in hamster hepatic microsomes

CC(=O)N1CCN(c2ccc(OC[C@@H]3CO[C@@](Cn4ccnc4)(c4ccc(Cl)cc4Cl)O3)cc2)CC1 [Nizoral]
Ki: 0.025 µM
